According to the NIST ThermoML archive (doi:10.1021/je7003929):
± gives the expanded uncertainty stated by the source.

Assay: xn = mol fraction of the nth substance listed
Conditions: Liquid, Vibrating tube method

c1ccc2sccc2c1 [benzo[b]thiophene] + CCCCCC
Conditions | mass density [kg/m3]
332.9 K, 1028 kPa, x2 = 0.4495 | 892.5 ± 0.4
332.9 K, 2010 kPa, x2 = 0.4495 | 893.2 ± 0.4
332.9 K, 3021 kPa, x2 = 0.4495 | 894.1 ± 0.5
332.9 K, 4018 kPa, x2 = 0.4495 | 895.3 ± 0.5
332.9 K, 5018 kPa, x2 = 0.4495 | 896.2 ± 0.5
332.9 K, 6008 kPa, x2 = 0.4495 | 897 ± 0.5
332.9 K, 7019 kPa, x2 = 0.4495 | 897.9 ± 0.5
332.9 K, 8016 kPa, x2 = 0.4495 | 898.8 ± 0.5
332.9 K, 9023 kPa, x2 = 0.4495 | 899.8 ± 0.5
332.9 K, 10018 kPa, x2 = 0.4495 | 900.7 ± 0.5
332.9 K, 11007 kPa, x2 = 0.4495 | 901.6 ± 0.5
332.9 K, 12010 kPa, x2 = 0.4495 | 902.4 ± 0.5
332.9 K, 13019 kPa, x2 = 0.4495 | 903.3 ± 0.5
332.9 K, 14015 kPa, x2 = 0.4495 | 904.2 ± 0.5
332.9 K, 15019 kPa, x2 = 0.4495 | 905 ± 0.5
332.9 K, 16002 kPa, x2 = 0.4495 | 905.9 ± 0.5
332.9 K, 17014 kPa, x2 = 0.4495 | 906.7 ± 0.5
332.9 K, 18017 kPa, x2 = 0.4495 | 907.5 ± 0.5
332.9 K, 19023 kPa, x2 = 0.4495 | 908.3 ± 0.5
332.9 K, 20028 kPa, x2 = 0.4495 | 909.1 ± 0.5
342.55 K, 1028 kPa, x2 = 0.2588 | 982.2 ± 0.5
342.55 K, 2013 kPa, x2 = 0.2588 | 983.1 ± 0.5
342.55 K, 3013 kPa, x2 = 0.2588 | 983.8 ± 0.5
342.55 K, 4017 kPa, x2 = 0.2588 | 984.7 ± 0.5
342.55 K, 5024 kPa, x2 = 0.2588 | 985.5 ± 0.5
342.55 K, 6012 kPa, x2 = 0.2588 | 986.3 ± 0.5
342.55 K, 7004 kPa, x2 = 0.2588 | 987.1 ± 0.5
342.55 K, 8017 kPa, x2 = 0.2588 | 987.9 ± 0.5
342.55 K, 9012 kPa, x2 = 0.2588 | 988.7 ± 0.5
342.55 K, 10016 kPa, x2 = 0.2588 | 989.5 ± 0.5
342.55 K, 11015 kPa, x2 = 0.2588 | 990.4 ± 0.5
342.55 K, 12022 kPa, x2 = 0.2588 | 991.2 ± 0.5
342.55 K, 13030 kPa, x2 = 0.2588 | 992 ± 0.5
342.55 K, 14011 kPa, x2 = 0.2588 | 992.8 ± 0.5
342.55 K, 15020 kPa, x2 = 0.2588 | 993.6 ± 0.5
342.55 K, 16020 kPa, x2 = 0.2588 | 994.3 ± 0.5
342.55 K, 17017 kPa, x2 = 0.2588 | 995.1 ± 0.5
342.55 K, 18008 kPa, x2 = 0.2588 | 995.8 ± 0.5
342.55 K, 19011 kPa, x2 = 0.2588 | 996.6 ± 0.5
342.55 K, 20013 kPa, x2 = 0.2588 | 997.4 ± 0.5
342.63 K, 1018 kPa, x2 = 0.0629 | 1085.6 ± 0.5
342.63 K, 2039 kPa, x2 = 0.0629 | 1086.3 ± 0.5
342.63 K, 3009 kPa, x2 = 0.0629 | 1087 ± 0.5
342.63 K, 4022 kPa, x2 = 0.0629 | 1087.8 ± 0.5
342.63 K, 5025 kPa, x2 = 0.0629 | 1088.5 ± 0.5
342.63 K, 5925 kPa, x2 = 0.0629 | 1089.1 ± 0.5
342.63 K, 7031 kPa, x2 = 0.0629 | 1089.9 ± 0.5
342.63 K, 8009 kPa, x2 = 0.0629 | 1090.6 ± 0.5
342.63 K, 9007 kPa, x2 = 0.0629 | 1091.3 ± 0.5
342.63 K, 10024 kPa, x2 = 0.0629 | 1092 ± 0.5
342.63 K, 11013 kPa, x2 = 0.0629 | 1092.7 ± 0.5
342.63 K, 12012 kPa, x2 = 0.0629 | 1093.4 ± 0.5
342.63 K, 13000 kPa, x2 = 0.0629 | 1094.1 ± 0.5
342.63 K, 14019 kPa, x2 = 0.0629 | 1094.8 ± 0.5
342.63 K, 15027 kPa, x2 = 0.0629 | 1095.4 ± 0.5
342.63 K, 16019 kPa, x2 = 0.0629 | 1096.1 ± 0.5
342.63 K, 17009 kPa, x2 = 0.0629 | 1096.8 ± 0.5
342.63 K, 18015 kPa, x2 = 0.0629 | 1097.5 ± 0.5
342.63 K, 19019 kPa, x2 = 0.0629 | 1098.2 ± 0.5
342.63 K, 20018 kPa, x2 = 0.0629 | 1098.8 ± 0.5
342.71 K, 1025 kPa, x2 = 0.9432 | 640.4 ± 0.5
342.71 K, 2014 kPa, x2 = 0.9432 | 641.8 ± 0.5
342.71 K, 3011 kPa, x2 = 0.9432 | 643.3 ± 0.5
342.71 K, 4027 kPa, x2 = 0.9432 | 644.8 ± 0.5
342.71 K, 5014 kPa, x2 = 0.9432 | 646.2 ± 0.5
342.71 K, 6027 kPa, x2 = 0.9432 | 647.6 ± 0.5
342.71 K, 7019 kPa, x2 = 0.9432 | 649 ± 0.5
342.71 K, 8015 kPa, x2 = 0.9432 | 650.3 ± 0.5
342.71 K, 9010 kPa, x2 = 0.9432 | 651.6 ± 0.5
342.71 K, 10003 kPa, x2 = 0.9432 | 652.9 ± 0.5
342.71 K, 11017 kPa, x2 = 0.9432 | 654.2 ± 0.5
342.71 K, 12006 kPa, x2 = 0.9432 | 655.4 ± 0.5
342.71 K, 13024 kPa, x2 = 0.9432 | 656.7 ± 0.5
342.71 K, 14021 kPa, x2 = 0.9432 | 657.8 ± 0.5
342.71 K, 15006 kPa, x2 = 0.9432 | 659 ± 0.5
342.71 K, 16015 kPa, x2 = 0.9432 | 660.2 ± 0.6
342.71 K, 17016 kPa, x2 = 0.9432 | 661.3 ± 0.6
342.71 K, 18000 kPa, x2 = 0.9432 | 662.4 ± 0.6
342.71 K, 19034 kPa, x2 = 0.9432 | 663.6 ± 0.6
342.71 K, 20012 kPa, x2 = 0.9432 | 664.6 ± 0.6
342.72 K, 1034 kPa, x2 = 0.7491 | 734.5 ± 0.5
342.72 K, 2000 kPa, x2 = 0.7491 | 735.8 ± 0.5
342.72 K, 3023 kPa, x2 = 0.7491 | 737 ± 0.5
342.72 K, 4016 kPa, x2 = 0.7491 | 738.2 ± 0.5
342.72 K, 5014 kPa, x2 = 0.7491 | 739.5 ± 0.5
342.72 K, 6014 kPa, x2 = 0.7491 | 740.7 ± 0.5
342.72 K, 7019 kPa, x2 = 0.7491 | 741.8 ± 0.5
342.72 K, 8012 kPa, x2 = 0.7491 | 743 ± 0.5
342.72 K, 9010 kPa, x2 = 0.7491 | 744.1 ± 0.5
342.72 K, 10013 kPa, x2 = 0.7491 | 745.3 ± 0.5
342.72 K, 11016 kPa, x2 = 0.7491 | 746.4 ± 0.5
342.72 K, 12016 kPa, x2 = 0.7491 | 747.5 ± 0.5
342.72 K, 13011 kPa, x2 = 0.7491 | 748.6 ± 0.5
342.72 K, 14001 kPa, x2 = 0.7491 | 749.6 ± 0.5
342.72 K, 15003 kPa, x2 = 0.7491 | 750.7 ± 0.5
342.72 K, 16025 kPa, x2 = 0.7491 | 751.7 ± 0.5
342.72 K, 17012 kPa, x2 = 0.7491 | 752.8 ± 0.5
342.72 K, 18018 kPa, x2 = 0.7491 | 753.8 ± 0.5
342.72 K, 19008 kPa, x2 = 0.7491 | 754.7 ± 0.5
342.72 K, 20017 kPa, x2 = 0.7491 | 755.8 ± 0.5
342.79 K, 1022 kPa, x2 = 0.4495 | 883.3 ± 0.4
342.79 K, 2032 kPa, x2 = 0.4495 | 884.3 ± 0.5
342.79 K, 3024 kPa, x2 = 0.4495 | 885.3 ± 0.5
342.79 K, 4029 kPa, x2 = 0.4495 | 886.4 ± 0.5
342.79 K, 5019 kPa, x2 = 0.4495 | 887.3 ± 0.5
342.79 K, 6019 kPa, x2 = 0.4495 | 888.3 ± 0.5
342.79 K, 7035 kPa, x2 = 0.4495 | 889.3 ± 0.5
342.79 K, 8022 kPa, x2 = 0.4495 | 890.2 ± 0.5
342.79 K, 9016 kPa, x2 = 0.4495 | 891.1 ± 0.5
342.79 K, 10010 kPa, x2 = 0.4495 | 892 ± 0.5
342.79 K, 11010 kPa, x2 = 0.4495 | 893 ± 0.5
342.79 K, 12024 kPa, x2 = 0.4495 | 893.9 ± 0.5
342.79 K, 13001 kPa, x2 = 0.4495 | 894.8 ± 0.5
342.79 K, 14017 kPa, x2 = 0.4495 | 895.7 ± 0.5
342.79 K, 15021 kPa, x2 = 0.4495 | 896.6 ± 0.5
342.79 K, 16020 kPa, x2 = 0.4495 | 897.4 ± 0.5
342.79 K, 17009 kPa, x2 = 0.4495 | 898.3 ± 0.5
342.79 K, 18009 kPa, x2 = 0.4495 | 899.2 ± 0.5
342.79 K, 19011 kPa, x2 = 0.4495 | 900 ± 0.5
342.79 K, 20011 kPa, x2 = 0.4495 | 900.9 ± 0.5
352.33 K, 1030 kPa, x2 = 0.2588 | 973.2 ± 0.5
352.33 K, 2012 kPa, x2 = 0.2588 | 973.9 ± 0.5
352.33 K, 3021 kPa, x2 = 0.2588 | 974.8 ± 0.5
352.33 K, 4018 kPa, x2 = 0.2588 | 975.8 ± 0.5
352.33 K, 5020 kPa, x2 = 0.2588 | 976.6 ± 0.5
352.33 K, 6024 kPa, x2 = 0.2588 | 977.6 ± 0.5
352.33 K, 7016 kPa, x2 = 0.2588 | 978.5 ± 0.5
352.33 K, 8000 kPa, x2 = 0.2588 | 979.3 ± 0.5
352.33 K, 9020 kPa, x2 = 0.2588 | 980.2 ± 0.5
352.33 K, 10010 kPa, x2 = 0.2588 | 981 ± 0.5
352.33 K, 11018 kPa, x2 = 0.2588 | 981.9 ± 0.5
352.33 K, 12012 kPa, x2 = 0.2588 | 982.7 ± 0.5
352.33 K, 13013 kPa, x2 = 0.2588 | 983.5 ± 0.5
352.33 K, 14007 kPa, x2 = 0.2588 | 984.3 ± 0.5
352.33 K, 15016 kPa, x2 = 0.2588 | 985.2 ± 0.5
352.33 K, 16012 kPa, x2 = 0.2588 | 986 ± 0.5
352.33 K, 17013 kPa, x2 = 0.2588 | 986.8 ± 0.5
352.33 K, 18003 kPa, x2 = 0.2588 | 987.6 ± 0.5
352.33 K, 19011 kPa, x2 = 0.2588 | 988.4 ± 0.5
352.33 K, 20014 kPa, x2 = 0.2588 | 989.1 ± 0.5
